US20110251240A1, “Dosing Regimen of Flavopiridol for Treating Cancer” (OHIO STATE UNIVERSITY RESEARCH FOUNDATION, priority 2005, published 2011)
Entries after “also recorded” stand apart in the source; their conditions may differ. Counter-ions that a name gives are not always drawn. Like-named read-outs stand apart in the source and are kept apart here.

What was measured:
[1] = system: CLL cells; assay: cells; format: cell-based; conditions: Homo sapiens, CLL cell
Source text: (§1) Based upon the poor clinical results in all the trials reported to date with flavopiridol, the present invention contemplated the possibility that differential protein binding could exist between these two culture media. […] Additionally, the 1-hour LC50 concentration for CLL cells in human serum was generally not obtained in the solid tumor phase I trial exploring this schedule. Thus, the prolonged continuous infusion or bolus dosing schedules previously explored in CLL and NHL may not achieve pharmacologically effective drug concentrations of flavopiridol, thereby explaining the absence of activity in the continuous infusion schedules and the marginal activity with the IV bolus schedule. Given the novel mechanism of action of flavopiridol, as well as its ability to induce apoptosis independent of p53 dysfunction and modulate critical anti-apoptotic proteins such as Mcl-1 in vitro, and utilizing pharmacokinetic modeling a new dosing regimen in accordance with this invention was developed.

[2] = format: in vitro ADME; conditions: bovine
Source text: However, despite the promising pre-clinical results with flavopiridol in CLL and virtually all hematologic malignancies, the efficacy of flavopiridol in treating CLL in all of the clinical studies reported thus far are disappointing. […] See for example, Byrd J. C. et al., “Treatment of Relapsed Chronic Lymphocytic Leukemia by 72-hour Continuous Infusion or 1-Hour Bolus Infusion of Flavopiridol: Results from Cancer and Leukemia Group B Study 19805,” Clin. Cancer Res. 2005; 11(11) Jun. 1, 2005, 4176-4181, and references cited therein. The schedules selected in these unsuccessful trials were modeled after in vitro studies performed in fetal bovine serum-based media.
as §1, with “Given the novel mechanism of action of flavopiridol, as well as its ability to induce apoptosis independent of p53 dysfunction and modulate critical anti-apoptotic proteins such as Mcl-1 in vitro, and utilizing pharmacokinetic modeling a new dosing regimen in accordance with this invention was developed.” left out

[3] = system: patients with CLL or small lymphocytic lymphoma; assay: Example 1 phase I trial: toxicity; format: in vivo
Experimental: Subjects: All patients provided written informed consent. […] Flavopiridol was administered via a central venous catheter. […] The ability to perform bedside emergent dialysis was assured.
Toxicity Observed with Flavopiridol: Six patients were initially treated in dose level 1 (30 mg/m^2 bolus followed by 30 mg/m^2 4-hour infusion), with one patient having dose limiting toxicity (neutropenic fever). Dose escalation proceeded to dose level 2, with three patients being treated. […] On autopsy, extensive apoptosis/necrosis of diffuse intra-abdominal lymphadenopathy was found. No additional patients were treated at this dose, but patient one of dose level 2, who previously had not experienced TLS at the 80 mg/m^2/dose, developed this toxicity on day 1 of cycle 2 while receiving a 60 mg/m^2 dose. All treatment was put on hold and an aggressive monitoring mechanism was put into place. Fourteen additional patients were treated at the level 1 dose utilizing this protocol. While biochemical evidence of TLS was present in most patients receiving therapy, only one developed significant TLS that required temporary dialysis for medically uncontrollable hyperkalemia on day 1 of therapy. While grade 1 (n=11) or 2 (n=6) diarrhea occurred in the majority of patients treated at the level 1 dose, this was generally short-lived. Similarly, transient grade 1 (n=13) or grade 2 (n=6) fatigue was observed.

[4] = system: patients with CLL or small lymphocytic lymphoma; assay: Example 1 phase I trial: response (NCI 96 criteria); format: in vivo, human
Source text: (§2) Subjects: All patients provided written informed consent. Patients had CLL or small lymphocytic lymphoma and required therapy according to the NCI criteria. […] Enrollment requirements included: age older than 17 years, symptomatic by the NCI 96 criteria, platelet count greater than 49×10^9/L, ECOG performance status of 2 or less, no active infection or inflammatory bowel disease, and not pregnant. The serum creatinine and total bilirubin levels were required to be no more than 2.0 times the normal value. Design, Treatment and Dose Modifications: This study utilized a modified phase I design, enrolling three to six patients per level until two of the first six patients experienced dose limiting toxicity. Expansion of the dose level below this occurred to a minimum of six patients to assure safety for phase II investigation. Flavopiridol was administered via a central venous catheter. The schedule of flavopiridol included receiving 50% of the dose as a 30-minute bolus infusion and the remaining 50% dose as a 4-hour infusion every week for four consecutive weeks, followed by two weeks off. The total dose administered in level 1 was 60 mg/m^2 (i.e. 30 mg/m^2 as 30 minute bolus followed by 30 mg/m^2 4-hour continuous infusion). In level 2 the dose was 80 mg/m^2 (i.e. 40 mg/m^2 bolus and 40 mg/m^2 infusion). All patients received allopurinol 300 mg/day beginning one day prior to initiation of treatment and continued during therapy. All patients received prophylactic anti-viral and Pneumocystis carinii pneumonia therapy as described previously during and for six months following completion of therapy. […] Aggressive management of hyperkalemia including kayexalate therapy, insulin and glucose therapy, and calcium therapy was employed according to an established protocol. The ability to perform bedside emergent dialysis was assured. Prophylactic rasburicase was utilized in patients with bulky lymphadenopathy or high lymphocyte counts. Following five treatments with flavopiridol, treatment was transitioned to outpatient status with two hours of hydration before and through therapy with abbreviated laboratory monitoring. Patients could discontinue therapy for stable disease without improvement after two cycles (eight treatments). Otherwise, patients continued therapy in the absence of progression or toxicity that prohibited further treatment for a maximum of six cycles (24 treatments) of flavopiridol. Patients were evaluated for response after two, four, and six cycles of therapy. Dose Limiting Toxicity: Dose limiting toxicity was defined as non-hematologic toxicity of grade 3 or greater severity (excluding transient liver function abnormalities, transient non-life-threatening electrolyte abnormalities, fatigue, or diarrhea that resolve within four days), or in some case grade 2 toxicity (i.e. irreversible renal, chronic pulmonary, neurologic, or cardiac toxicity). Hematologic toxicity was dose limiting only if grade 4 thrombocytopenia or neutropenia persisted for seven days or greater. The NCI Common Toxicity Criteria was used to grade non-hematologic toxicity and the NCI 96 CLL criteria for hematologic toxicity. See, Cheson B. D., et al. “National Cancer Institute-sponsored Working Group guidelines for chronic lymphocytic leukemia: revised guidelines for diagnosis and treatment,” Blood 1996; 87:4990-7. Assessment of Response: Criteria for response and progression utilized the Revised NCI-sponsored Working Group Guidelines as mentioned above. As specified by these guidelines, a response had to be maintained for a period of two months.

[5] = system: Mcl-1; assay: Example 1 cellular pharmacodynamics: immunoblot of Mcl-1 in primary CLL cells during treatment; format: in vivo, human
Source text: (§3) Subjects: All patients provided written informed consent. Patients had CLL or small lymphocytic lymphoma and required therapy according to the NCI criteria. […] Enrollment requirements included: age older than 17 years, symptomatic by the NCI 96 criteria, platelet count greater than 49×10^9/L, ECOG performance status of 2 or less, no active infection or inflammatory bowel disease, and not pregnant. The serum creatinine and total bilirubin levels were required to be no more than 2.0 times the normal value. Design, Treatment and Dose Modifications: This study utilized a modified phase I design, enrolling three to six patients per level until two of the first six patients experienced dose limiting toxicity. Expansion of the dose level below this occurred to a minimum of six patients to assure safety for phase II investigation. Flavopiridol was administered via a central venous catheter. The schedule of flavopiridol included receiving 50% of the dose as a 30-minute bolus infusion and the remaining 50% dose as a 4-hour infusion every week for four consecutive weeks, followed by two weeks off. The total dose administered in level 1 was 60 mg/m^2 (i.e. 30 mg/m^2 as 30 minute bolus followed by 30 mg/m^2 4-hour continuous infusion). In level 2 the dose was 80 mg/m^2 (i.e. 40 mg/m^2 bolus and 40 mg/m^2 infusion). […] Patients were evaluated for response after two, four, and six cycles of therapy. […]

[6] = system: RNA polymerase II; assay: Example 1 cellular pharmacodynamics: RNA polymerase II serine-5 phosphorylation in primary CLL cells during treatment; format: in vivo, human; conditions: eight patients examined
Source text: as §3

[7] = Example 1 plasma pharmacokinetics (LC/MS); conditions: for half-life: plasma, intravenous
Source text: as §2

[8] = system: patients with CLL; conditions: human, in vivo
Source text: (§4) Fifty-six patients were enrolled in this clinical trial with the median prior therapies being 4 and the majority being fludarabine-refractory. […] Cohort 1 was expanded with aggressive TLS prophylaxis. Of the 20 patients in cohort 1, 8 (40%) attained a partial response (PR) with median response duration exceeding 12 months. […] Cohort 3 and 4 did this (Table 4) with acceptable toxicity. Cohort 3 included 19 patients of whom 14 were escalated with the 5th dose. […] Ten (53%) of patients attained a partial response. […] TLS risk factors were examined for the first treatment dose in cohorts 1-3. WBC of ≧200×10^9/L were more frequently associated with TLS (5 of 8 pts) versus those with WBC<200×10^9/L (1 of 34 pts). Cohort 4 excludes pts with WBC≧200×10^9/L and currently includes 14 pts. Safety has been acceptable with only 1 case of TLS. Response assessment for cohort 4 is underway, with anti-tumor activity appearing similar to that observed in cohort 3.

[9] = system: patients with CLL; assay: Example 2 clinical trial: response; format: in vivo, human
Source text: as §4

[10] = Example 2 clinical trial: plasma Cmax; format: in vivo; conditions: human, intravenous
Source text: as §4

[11] = system: relapsed CLL; conditions: cited from earlier work; for clinical activity / response: CLL, hydrochloride
[12] = 23 CLL patients, 30-min bolus + 4-h infusion
[13] = Cohort 1, 30 mg/m^2 + 30 mg/m^2, 20 pts
[14] = Cohort 2, 40 mg/m^2 + 40 mg/m^2, 3 pts
[15] = cohort 1, 30 mg/m^2 + 30 mg/m^2
[16] = cohort 3 at the escalated doses (30 mg/m^2 + 50 mg/m^2)

## CN1CC[C@H](c2c(O)cc(O)c3c(=O)cc(-c4ccccc4Cl)oc23)[C@H](O)C1 [Flavopiridol, (cis-5,7-dihydroxy-2-(2-chlorophenyl)-8-[4-(3-hydroxy-1-methyl)-piperidinyl]-1-benzopyran-4-one) hydrochloride]
[1]; 1 h, read-out: 1-hour LC50 required to induce apoptosis in CLL cells, 1-hour exposure, fetal calf serum
  CC50: 0.67 µM
[1]; 1 h, read-out: 1-hour LC50 required to induce apoptosis in CLL cells, 1-hour exposure, human serum
  CC50: 3.51 µM
[1]; 24 h, read-out: 24-hour LC50 required to induce apoptosis in CLL cells, 24-hour exposure, fetal calf serum
  CC50: 0.12 µM
[1]; 24 h, read-out: 24-hour LC50 required to induce apoptosis in CLL cells, 24-hour exposure, human serum
  CC50: 0.47 µM

## CN1CCC(c2c(O)cc(O)c3c(=O)cc(-c4ccccc4Cl)oc23)[C@H](O)C1.Cl (stereo partly drawn) [Flavopiridol, (cis-5,7-dihydroxy-2-(2-chlorophenyl)-8-[4-(3-hydroxy-1-methyl)-piperidinyl]-1-benzopyran-4-one) hydrochloride]
[2]
  free drug level: 63-100%
[3]; 40 mg/m^2 bolus + 40 mg/m^2 infusion, day 1
  toxicity in patient three at dose level 2: TLS complicated by uncontrollable hyperkalemia and subsequent fatal asystole
[3]; [12]
  Number of patients with AST Elevation Grade 5: 0
  Number of patients with Anemia Grade 5: 0
  Number of patients with Arthralgias Grade 5: 0
  Number of patients with Diarrhea Grade 5: 0
  Number of patients with Dyspnea Grade 5: 0
  Number of patients with Edema Grade 5: 0
  Number of patients with Fatigue Grade 5: 0
  Number of patients with Hypokalemia Grade 5: 0
  Number of patients with Infection Grade 3: 5
  Number of patients with Infection Grade 4: 0
  Number of patients with Infection Grade 5: 0
  Number of patients with Neutropenia Grade 5: 0
  Number of patients with Syncope Grade 5: 0
  Number of patients with Thrombocytopenia Grade 5: 0
  Number of patients with Tumor Lysis Syndrome Grade 5: 1
  Percentage of patients with Infection Grade 3: (22%)
  Percentage of patients with Tumor Lysis Syndrome Grade 5: 4%
[3]; human, in vivo
  patients with grade 1 diarrhea: 11
  patients with grade 2 diarrhea: 6
  patients with transient grade 1 fatigue: 13
  patients with transient grade 2 fatigue: 6
[3]; in vivo
  patients developing significant TLS that required temporary dialysis: one
[4]; 40 mg/m^2 bolus + 40 mg/m^2 infusion
  duration of partial response in patient two at dose level 2: > 13 month
[4]; among the 23 patients enrolled
  patients attaining a partial response (NCI 96 criteria), number: ten
  patients attaining a partial response (NCI 96 criteria), percentage: 43%
[4]; of ten responders, at eight and sixteen months
  responding patients relapsed: two
[4]; of ten responders, at five to 14+ months
  responding patients remaining in continuous remission: Eight
[4]; of the nine patients with measurable lymphadenopathy, by day 8 of cycle 1
  patients experiencing a 50% or greater reduction in lymphadenopathy: eight
[5]; of the five non-responding patients examined
  patients with significant modulation of Mcl-1: None
[5]; of three responding patients examined
  patients with decreased expression of Mcl-1 with treatment: two
[6]
  change in serine-5 phosphorylation of RNA polymerase II: no change
[7]; 30 + 30 mg/m^2 (n = 20), Mean ± S.D.
  CL: 14.5 ± 6.5 L/hr/m^2
[7]; human, in vivo
  inter-patient variability of Cmax: two to three-fold
[7]; human, in vivo, 80 mg/m^2
  Cmax: 4.4 µM
[7]; human, t1/2, 30 + 30 mg/m^2 (n = 20), Mean ± S.D.
  half-life: 14 ± 10.2 h
[7]; human, terminal half-life, mean±S.D., after the end of the 4-hour CIVI
  half-life: 14 ± 10.2 h
[7]; human, terminal half-life, range, after the end of the 4-hour CIVI
  half-life: 1.1 to 42.5 h
[8]
  cases of TLS: 1
[9]; [13]
  Response Rate (partial response), number of patients: 8
  Response Rate (partial response), percentage: 40%
[9]; [14]
  Response Rate, number of patients: 1
  Response Rate, percentage: 33%
[9]; Cohort 3, 30 + 30 mg/m^2 dose 1-4 then 30 + 50 mg/m^2, 19 pts
  Response Rate (partial response), percentage: 53%
[9]; cohort 1 responders
  median response duration: exceeding 12 months
[9]; cohort 3, 14 patients escalated with the 5th dose
  tumor cytoreduction with dose escalation: Increased tumor cytoreduction was observed in a majority of patients
[10]; [15]
  Cmax at 0.5 hr: 2.08 µM
  Cmax at 4.5 hr: 0.96 µM
[10]; [16]
  Cmax at 0.5 hr: 1.95 µM
  Cmax at 4.5 hr: 1.54 µM
[11]; 1-hour bolus, relapsed CLL
  response rate: 11%
[11]; 24-hour infusion
  clinical activity / response: No activity; also recorded: no patients with CLL responded
[11]; 72-hour continuous infusion
  clinical activity / response: No activity; also recorded: no patients with CLL responded
